Where a name gives a salt, the structure may show the parent alone. Read-outs that look alike come from different tables or passages of the source. Residues, ends and D or L forms follow the SMILES beside them. *: point of attachment. Cbz = O=C(OCc1ccccc1)*; CHN2 = [N-]=[N+]=C*
Experiments:
in vitro = conditions: human
SARS-CoV-2 [1] = experiment: microbe, parasite or virus in culture
SARS-CoV-2 [2] = system: SARS-CoV-2
HeLa-ACE2 cells = experiment: cells; format: cell-based, human
SARS-CoV-2 [3] = conditions: read-out: Calu-3 CoV-2 EC50; Table 4; aggregated data, Geomean, n = 3; 48 h
[4] = CC50 [μM] (Geomeans, n ≥ 2 except where indicated: *n = 1)
[5] = Severe acute respiratory syndrome coronavirus 2, HeLa-ACE2, 24 h, read-out: CoV-2 EC50 [μM] (Geomeans, n ≥ 2)
[6] = Homo sapiens, HeLa-ACE2, read-out: HeLa-ACE-2 EC50 [μM] (Geomeans, n ≥ 2)
[7] = Severe acute respiratory syndrome coronavirus 2, HeLa-ACE2, read-out: SARS-CoV-2 EC50

Compound | CC50 (in vitro; [4]) | EC50 (SARS-CoV-2 [1]; [5]) | HeLa-ACE2 CC50/CoV-2 EC50 (SARS-CoV-2 [2]) | EC50 (HeLa-ACE2 cells; [6]) | also measured
CCNCc1cc(Nc2ccnc3cc(Cl)ccc23)ccc1O | > 20.4 µM | 1.22 µM | >16.69 | > 9.59 µM | –
CN1C[C@@H]2c3ccccc3Oc3ccc(Cl)cc3[C@H]2C1 (racemic) [Asenapine maleate] | > 35.6 µM | – | – | – | –
Nc1ncnc2c1nc(Cl)n2[C@@H]1O[C@H](CO)[C@@H](O)[C@H]1O [8-Chloroadenosine] | > 11.9 µM | 0.927 µM | >12.80 | – | –
CC(C)(/C=N/OCC(=O)O)Cc1c(SC(C)(C)C)c2cc(OCc3ccc4ccccc4n3)ccc2n1Cc1ccc(Cl)cc1 [A 81834] | > 22.6 µM | > 7.47 µM | >3.02 | > 9.59 µM | –
C[C@@H]1CCCN1CCc1cc2cc(-c3ccc(C#N)cc3)ccc2o1 [ABT-239] | > 37.2 µM | > 3.33 µM | 11.18 | > 7.49 µM | –
CC1=C(c2ccc(O)cc2)[C@H](c2ccc(OCCN3CCCCC3)cc2)Oc2cc(O)ccc21 [ACOLBIFENE] | 13.4 µM | 4.79 µM | 2.8 | > 9.59 µM | –
COc1cc(C(C)=O)ccc1OCCCN1CCC(C(O)(c2ccc(F)cc2)c2ccc(F)cc2)CC1 [AHR-5333] | > 24.7 µM | > 4.53 µM | 5.44 | > 7.1 µM | –
COc1ccc(C[C@H]2NC[C@H](O)[C@H]2OC(C)=O)cc1 [ANISOMYCIN] | – | – | – | – | EC50 (SARS-CoV-2 [3]): 0.127 µM; EC50 (SARS-CoV-2 [2]; read-out: HeLa-ACE2 CoV-2 EC50, Table 4, aggregated data, Geomean, n = 3): 0.066 µM
Cc1cccc(/C=N/Nc2cc(N3CCOCC3)n3nc(-c4ccncc4)cc3n2)c1 [APY0201] | > 39.4 µM | 0.014 µM | >2853.95 | – | –
NC1(C(=O)N[C@@H](CCO)c2ccc(Cl)cc2)CCN(c2nc[nH]c3nccc2-3)CC1 [AZD-5363] | – | – | – | – | EC50 (SARS-CoV-2 [2]; read-out: CoV-2 EC50 [μM] (Geomeans, n ≥ 2), Table 1, HeLa-ACE2, 24 h): > 4.63 µM; EC50 (HeLa-ACE2 cells; read-out: HeLa-ACE-2 EC50 [μM] (Geomeans, n ≥ 2)): > 3.39 µM
CN1CCN(C2=Cc3cc(Cl)ccc3/C(=C\C#N)c3ccccc32)CC1 [Alkene Stereoisomer analog of Rilapine] | > 39.8 µM | 2.99 µM | >13.32 | > 9.59 µM | –
CCN(CC)Cc1cc(Nc2ccnc3cc(Cl)ccc23)ccc1O [Amodioaquine] | > 39.8 µM | 1.19 µM | >33.48 | – | –
CCOC(=O)c1c(CSc2ccccc2)n(C)c2cc(Br)c(O)c(CN(C)C)c12 [Arbidol] | > 29.1 µM | > 5.97 µM | 4.88 | > 9.34 µM | –
CCCN1CCN(c2ccc(C(=O)NC3(C(=O)NCC#N)CCCCC3)cc2)CC1 [Balicatib] | > 39.8 µM | 5.11 µM | >7.79 | > 9.59 µM | –
CC(C)(C)NC(=O)N[C@H](C(=O)N1C[C@H]2[C@@H]([C@H]1C(=O)NC(CC1CCC1)C(=O)C(N)=O)C2(C)C)C(C)(C)C (stereo partly shown) [Boceprevir] | > 39.8 µM | > 9.34 µM | 4.27 | > 7.08 µM | –
CN1[C@@H]2CC[C@H]1C[C@@H](N1Cc3ccc4ccccc4c3C1=O)C2 [CR-3124] | > 39.8 µM | – | >6.67 | – | –
COc1ccc2cc1Oc1ccc(cc1)C[C@H]1c3c(cc4c(c3Oc3cc5c(cc3OC)CCN(C)[C@@H]5C2)OCO4)CCN1C [Cepharanthine] | > 25.4 µM | – | >25.76 | – | –
Oc1ccc(CCN2CCC(Nc3nc4ccccc4n3Cc3ccc(F)cc3)CC2)cc1 [DESMETHYLASTEMIZOLE] | 16.2 µM | 2.38 µM | 6.81 | > 9.59 µM | –
CCCCCCOC(=O)NC(=N)c1ccc(NCc2nc3cc(C(=O)N(CCC(=O)OCC)c4ccccn4)ccc3n2C)cc1 [Dabigatranetexilate mesilate] | > 26.5 µM | – | >6.50 | – | –
O=c1c2ccccc2[se]n1-c1ccccc1 [Ebselen] | > 26.6 µM | > 8.5 µM | 3.13 | 6.02 µM | –
CN(C)CC1=C[CH]([Fe][CH]2C=CC=C2)C=C1CNc1ccnc2cc(Cl)ccc12 (stereo not shown) [Ferroquine] | 13.4 µM | – | 10.29 | – | –
c1cn2cc(-c3ccc4c(c3)nc3n4CCN4CCCCC4C3)ccc2n1 (stereo not shown) [Integrity ID 725781] | > 39.8 µM | > 9.04 µM | 4.41 | > 9.59 µM | –

Compound | CC50 (in vitro; [4]) | EC50 (SARS-CoV-2 [1]; [5]) | HeLa-ACE2 CC50/CoV-2 EC50 (SARS-CoV-2 [2]) | EC50 (HeLa-ACE2 cells; [6]) | also measured
COC(CNCC(C)C)COc1c(C)csc1C(=O)CCc1ccccc1 (stereo not shown) [LG-6-101] | > 35.6 µM | 3.46 µM | 10.3 | – | –
COCC12CN(S(=O)(=O)c3ccc4cc(Cl)ccc4c3)CC(=O)N1CC1(CCN(c3ccncc3)CC1)O2 (stereo not shown) [M-55532] | 18.9 µM | 2.77 µM | 6.81 | > 6.45 µM | –
O=C(CCCN1CCN(c2ccc(F)cc2)CC1)NC1c2ccccc2CSc2ccccc21 (stereo not shown) [MONATEPIL] | > 39 µM | > 7.79 µM | >5.01 | – | –
C=CC(=O)Nc1cc2c(Nc3ccc(F)c(Cl)c3)ncnc2cc1C#CC(C)(C)N1CCN(C)CC1 [MP-412] | 3.18 µM | 0.761 µM | 4.18 | 1.25 µM | –
c1ccc2c(c1)Sc1ccccc1N2CC1CN2CCC1CC2 (stereo not shown) [Mequitazine] | 17.3 µM | 2.53 µM | 6.83 | > 9.59 µM | –
CCCCN1CC[C@H](c2ccc(N(C)C)cc2)[C@@H](COc2ccc(C(F)(F)F)cc2)C1 [NNC 090026] | > 15.4 µM | 2.75 µM | >5.59 | – | CC50 (in vitro; Uninfected HeLa-ACE2 CC50 (μM)): > 15.4 µM; EC50 (SARS-CoV-2 [1]; Severe acute respiratory syndrome coronavirus 2, HeLa-ACE2, read-out: SARS CoV-2 EC50 (μM)): 2.75 µM
C=C(C)[C@@H]1CC[C@]2(C(=O)OCC(N)(CO)CO)CC[C@]3(C)[C@H](CC[C@@H]4[C@@]5(C)CC[C@H](OC(C)=O)C(C)(C)[C@@H]5CC[C@]43C)[C@@H]12 [NVX-207] | 8.19 µM | 1.87 µM | 4.37 | 5.88 µM | –
CC[C@@H](C(=O)O)[C@@H]1O[C@@H]([C@@H](C)[C@H](O)[C@H](C)C(=O)[C@H](CC)[C@H]2O[C@]3(C=C[C@@H](O)[C@]4(CC[C@@](C)([C@H]5CC[C@](O)(CC)[C@H](C)O5)O4)O3)[C@H](C)C[C@@H]2C)[C@@H](C)C[C@@H]1C [Narasin] | 3.47 µM | 1.5 µM | 2.31 | 5.99 µM | –
CN1CCN(C2Cc3cc(Cl)ccc3Sc3ccccc32)CC1 (stereo not shown) [OCTOCLOTHEPIN analog] | > 28.4 µM | 2.49 µM | >11.42 | > 8.73 µM | –
Cc1ccc(C(=O)Nc2ccc(CN3CCN(C)CC3)c(C(F)(F)F)c2)cc1C#Cc1cnc2cccnn12 [Ponatinib] | – | 1.61 µM | – | 1.25 µM | –
CCOc1cc(C(C)(C)C)ccc1C1=N[C@@](C)(c2ccc(Cl)cc2)[C@@](C)(c2ccc(Cl)cc2)N1C(=O)N1CCN(CCCS(C)(=O)=O)CC1 [R-7112] | > 14.9 µM | 3.23 µM | >4.61 | > 9.6 µM | –
Cc1cccc(C)c1NC(=O)CN1CCN([C@@H]2CCN(C(=O)c3cc(C(F)(F)F)cc(C(F)(F)F)c3)[C@@H](Cc3ccccc3)C2)CC1 [R-116301] | 25.5 µM | 6.83 µM | 3.73 | > 9.59 µM | –
CN(C)CCC(Oc1ccc2c(c1)C(=O)CC(c1ccccc1)O2)c1ccccc1 (stereo not shown) [RFM-007-454-4] | > 23.5 µM | 3.83 µM | >6.13 | > 9.59 µM | –
CNCc1ccc(OC)c([C@]2(N3CCC[C@H]3c3ncco3)C(=O)N(S(=O)(=O)c3ccc(OC)cc3)c3ccc(Cl)cc32)c1 [RFM-011-200-5] | > 8.46 µM | 1.93 µM | >4.37 | 4.24 µM | –
N#Cc1ccc2c(c1)[C@H]1CN(CCCCNC(=O)c3ccc(-c4ccccc4)cc3)C[C@@H]1CO2 [S-33084] | > 24.8 µM | 3.91 µM | >6.34 | – | –
CNC(=O)c1cc(Oc2ccc(NC(=O)Nc3ccc(Cl)c(C(F)(F)F)c3)cc2)ccn1 [Sorafenib] | > 8.65 µM | > 5.67 µM | >1.52 | – | –
COc1cc(C[C@H]2c3cc(OC)c(OC)cc3CCN2C)c(Oc2cc3c(cc2OC)-c2c(OC)c(OC)cc4c2[C@H](C3)N(C)CC4)cc1OC [Thalicarpine] | > 26.6 µM | – | >45.67 | > 9.6 µM | –
CC(C)CC(NC(=O)OCc1ccccc1)C(=O)NC(C(=O)NCC(=O)C=[N+]=[N-])C(C)C (stereo not drawn) [Z LVG CHN2] (Cbz-Leu-Val-Gly-CHN2; configuration not given here) | > 39.8 µM | 0.072 µM | >554.29 | – | –
Cc1c(-c2ccc(O)cc2)n(Cc2ccc(OCCN3CCCCCC3)cc2)c2ccc(O)cc12 [bazedoxifene] | – | – | – | – | EC50 (SARS-CoV-2 [1]; [7]): 3.47 µM
OC(CNCC(O)C1CCc2cc(F)ccc2O1)C1CCc2cc(F)ccc2O1 (stereo not shown) [nebivolol hydrochloride] | > 11.1 µM | 2.96 µM | >3.75 | – | –
COc1ccc(C[C@H](N)C(=O)N[C@H]2[C@@H](O)[C@H](n3cnc4c(N(C)C)ncnc43)O[C@@H]2CO)cc1 [puromycin] | – | – | – | – | CC50 (in vitro; HeLa-ACE2 CC50): 2.45 ± 0.23 µM; EC50 (HeLa-ACE2 cells; Homo sapiens, HeLa-ACE2, read-out: EC50 (total cell numbers per well, toxicity in context of infection)): 0.547 ± 0.027 µM
O=C(c1ccc(OCCN2CCCCC2)cc1)c1c(-c2ccc(O)cc2)sc2cc(O)ccc12 [raloxifene] | – | – | – | – | EC50 (SARS-CoV-2 [1]; [7]): 4.13 µM

Reference: patent US20230346820A1, “METHODS AND COMPOSITIONS FOR THE TREATMENT OF SARS-COV-2” (priority 2020, published 2023)
